Assay: Human HepG2 cell viability assay in 384 well format
Assay type: toxicity, cell-based
Set-up: dose 125 nL, time 70.5 hour; cytotoxicity at 70.5 h: concentration not given beside the values
Details: HepG2 cells, read-out: Inhibition

SMILES	cytotoxicity at 70.5 h
CN1CCO[C@@H]2CN(C(=O)NCc3cccc(F)c3)CC[C@@H]2C1	-3.54%
CC(=O)N1CCc2nc(-c3ccccc3)nc(NC(C)C)c2CC1	-13.5%
CN1CC[C@]2(CN(S(C)(=O)=O)C[C@H]2c2ccccc2)C1=O	3.8%
CC(=O)N1CC[C@H]2OCC[C@@]2(C(=O)NCc2cnc(C)cn2)C1	-5.25%
CC(=O)N1C[C@@H]2CN(S(=O)(=O)C3CC3)CCO[C@@H]2C1	-1.33%
CCOC[C@@]12CCC[C@@H]1CN(C(=O)c1ccc(OC)cc1)C2	4.26%
CNC(=O)C1Cn2ccnc2C2(CCN(C(=O)NC3CCCC3)CC2)O1 (stereo not given)	-9.83%
CCn1ncc2c1C(COC)N(C(=O)Cc1cccs1)CC2 (stereo not given)	-0.61%
Cc1cnc(CNC(=O)[C@@]23CCO[C@@H]2CCN(c2ncccn2)C3)cn1	-12.7%
CCOCC1CN(S(C)(=O)=O)Cc2nn(C)cc21 (stereo not given)	-3.61%
O=C(OCc1ccccc1)N1CC[C@H]2CC(CO)O[C@@H]2C1 (stereo not given in full)	4.61%
Cc1ccc(N2CCCC3(CCN(C(=O)c4sccc4C)C3)C2)nn1 (stereo not given)	-4.03%
CNC(=O)[C@H]1C[C@@H]2CN(C(=O)c3ccncc3F)C[C@@H]2N1C	-16.9%
Cc1ccc(N2CCCC3(CCN(C(=O)NC4CCCC4)C3)C2)nn1 (stereo not given)	-12.8%
Cc1ccc(C(=O)N2CCC3(CCCN(c4ccc(C)nn4)C3)C2)cn1 (stereo not given)	-10.8%
COCC1CN(C(=O)CC2=CCCCC2)Cc2nnn(CC3CC3)c21 (stereo not given)	-12%
Cc1nc(N2CCOCC2)nc2c1CCN(C(=O)C1(C#N)CC1)CC2	-9.06%
O=C([C@@H]1CCO[C@@H]2CCN(CC3CCOCC3)C[C@H]21)N1CCCC1	-12.7%
CC(C)NC(=O)N1CCC2(CC1)CC[C@@]1(C(=O)N(C)C)CN(C)C[C@@H]21	-11.9%
Cc1nc([C@H]2C[C@@H]3CCN(Cc4ccc5c(c4)OCO5)C[C@H]3O2)no1	-12.3%
Cc1csc(CN2C[C@@H]3CN(S(C)(=O)=O)CCO[C@@H]3C2)n1	5.33%
Cn1cccc1C(=O)N1C[C@H]2CN(CC3CC3)C(=O)[C@H]2C1	6.81%
COCCn1c2c(ccc1=O)CC(NC(=O)c1cscn1)CC2 (stereo not given)	-4.76%
O=C1NCCO[C@H]2CN(C(=O)CC3Cc4ccccc4C3)CC[C@@H]12	-9.87%
CC(C)CN1C[C@@H]2CN(C(=O)c3cccn3C)C[C@@H]2C1=O	-7.2%
CC(C)CN1C(=O)CO[C@@H]2CNC[C@H]21	-10.3%
COc1cc(N2CCCC3(CCN(c4cncnc4)C3=O)C2)ncn1 (stereo not given)	-7.92%

SMILES	cytotoxicity at 70.5 h
CCS(=O)(=O)NCC1Cn2nnc(-c3cccc(C)c3)c2CO1 (stereo not given)	-5.93%
CC(=O)N1CCCC2(CCN(c3nncs3)C2)C1 (stereo not given)	-4.07%
Cc1nc(CN(C)C(=O)C2CCC(=O)N(CCN(C)C)C2)cs1 (stereo not given)	11.1%
O=C(NCc1ccco1)N1CCC(n2cc(-c3ccccn3)nn2)CC1	0.624%
Cc1nc(CN2CCCCC2CCc2ccc(O)cc2)co1 (stereo not given)	-6.18%
CN(Cc1cn[nH]c1-c1ccc(F)cc1)C(=O)CCC1CC1	-13.8%
O=C(O)C(c1cccc2c1OCC2)N1CCC(N2CCCC2)CC1 (stereo not given)	-0.16%
CC(C)c1cc(C2CCN(C(=O)Cn3nc4ccccc4n3)CC2)[nH]n1	-5.96%
COc1ccc([C@@H]2CN(c3cc(OC)ncn3)C[C@H]2N(C)C)cc1	22.1%
Cc1cc(C)nc(CN(C)c2nc(C3CCCC3)nc3c2cnn3C)c1	-9.74%
COCCCC1(C(=O)O)CCCN(C(=O)c2ccc(Cl)cc2F)C1 (stereo not given)	-10.9%
Cc1cc(N(C)CCC(O)c2ccccc2)n2nccc2n1 (stereo not given)	-3.24%
Cc1cnc(C(=O)N2CCCCC2c2ccc(CN(C)C)cc2)cn1 (stereo not given)	8.8%
Cc1nc2ccccn2c1CN1C[C@@H](CN(C)C)[C@@H](CO)C1	-6.27%
NC(=O)Cn1ccnc1C1CCCN(Cc2cccc(Cl)c2F)C1 (stereo not given)	-11.7%
CCn1nc(CC(C)C)cc1C(=O)NCc1c(C)cc(C)nc1OC	2.04%
O=c1[nH]c(NCc2cccc(OC(F)F)c2)nc2c1CCNC2	-23.8%
COCCc1noc(CN2CC(C)(c3ccccc3)CCC2=O)n1 (stereo not given)	-9.17%
CC(C)Oc1cccc(-c2nc3c([nH]2)CCCNC3=O)c1	5.17%
Cc1nccc(N2C[C@@H](CN3CCCC3)[C@@H](CO)C2)n1	-6.17%
O=C(C1CC2(CCNCC2)CN1)N1CCN(c2cccc(Cl)c2Cl)CC1 (stereo not given)	-1.58%
Cc1nc(N2CC[C@@H](c3ccc4ccccc4c3)[C@H](O)C2)no1	3.2%
CN(C)Cc1csc(-c2nccn2Cc2ccc(C(=O)O)cc2)c1	19.3%
CC(=O)N[C@@H]1CN(Cc2ccccc2C#N)C[C@H]1c1ccc(C)cc1	-21.6%
Cc1nonc1OCCNC(=O)COc1ccc(F)cc1F	-12.2%
Cc1nc(CN(C)Cc2nc(-c3ccncc3)no2)co1	3.9%
CCN(CC)C(=O)C1CCC(=O)N(CCc2cccc(F)c2)C1 (stereo not given)	19.7%

SMILES	cytotoxicity at 70.5 h
COCCN1CCN(C(=O)c2ccc(C)cc2OC)[C@H]2CS(=O)(=O)C[C@H]21	-11.7%
CC(C)CN1C(=O)CC[C@H]2CN(C(=O)Cn3ccc(=O)cc3)CC[C@H]21	21.4%
CC(c1cn2ccsc2n1)N1Cc2ncccc2C1=O (stereo not given)	-4.52%
CC1(C)CCN(S(=O)(=O)N2CCCC(c3cccc(C(=O)O)c3)C2)CC1 (stereo not given)	-10.5%
Cc1nc(C(=O)N2CCN(S(C)(=O)=O)[C@@H]3CS(=O)(=O)C[C@@H]32)cs1	1.07%
c1ccc(CNc2ncc(CN3CCCN4CCC[C@H]4C3)cn2)cc1	-3.55%
Cc1nc(CN(Cc2ccncc2)C2CCN(C)CC2)cs1	8.24%
Cn1nnnc1SCCNC(=O)c1cccc2ccnn12	3.9%
CN1C(=O)[C@H]2CC[C@@H]1CN(C(=O)Nc1cccc3ccccc13)C2	-6.28%
Cc1noc(-c2ccc(Oc3cccc(CN4CCCC4)c3F)nc2)n1	16.7%
COc1cccc(CNC(=O)N2CCCC(Cn3cc(CN)nn3)C2)c1 (stereo not given)	-5.66%
CNc1nc(C(=O)N2CCCn3nc(C(=O)N4CCCC4)cc3C2)cs1	-11.2%
CCN1CCN(C(=O)c2ccc3c(c2)CCCN3)[C@H]2CS(=O)(=O)C[C@H]21	-5.32%
CCN1CC2(CCC1=O)CCN(c1ccc(C(C)=O)cn1)CC2	-3.76%
CN(Cc1ccccc1)c1ncccc1CNC(=O)c1ccnn1C	-10.4%
CCN(C)C[C@H]1CC[C@@H](Cc2ccc3c(cnn3C)c2)O1	11.5%
CCC[C@H]1CN(Cc2ccc3c(c2)OCCO3)C[C@@H]1NC(=O)COC	3.4%
O=C(C1CC1)N1CCOC2(CCNCC2)C1	-10.9%
CN(Cc1cccnc1)Cc1cncc2c1CCN(Cc1ccoc1)C2	-7.08%
CN(Cc1cccnc1)Cc1cncc2c1CCN(c1ccccn1)C2	2.24%
COCCN1CCc2c(CNC(=O)c3nccn3C)cncc2C1	3.83%
CC(C)NC(=O)N1CCN(CCn2cccn2)c2ncccc2C1	-2.7%
CCC(=O)N1CCN(CCn2cccn2)c2ncccc2C1	12.9%
O=C(c1ccncc1)N1CCC2(CCCN(c3ncc(F)cn3)C2)C1 (stereo not given)	-2.34%
NC(=O)C1Cn2ccnc2C2(CCN(C(=O)NC3CCCC3)CC2)O1 (stereo not given)	-8.91%
O=C(COC[C@@]12CCC[C@@H]1CN(C1CCC1)C2)N1CCCC1	-9.27%
CC(C)Nc1nc(-c2ccccc2)nc2c1CCN(C(=O)C1CC1)CC2	-9.57%

SMILES	cytotoxicity at 70.5 h
CN(C)C(=O)COC[C@]12COC[C@H]1CN(C1CCCC1)C2	-8.08%
Cc1oncc1C(=O)N[C@@H]1CN(Cc2ccco2)C[C@@H]2CCCO[C@@H]21	-3.33%
CC(C)CC(=O)N1CCC2(CC1)OC(C(N)=O)Cn1ccnc12 (stereo not given)	-8.87%
CN1CCC2(CC1)CC(NC(=O)c1csnn1)c1ccccc1O2 (stereo not given)	-0.343%
CC(C)N1[C@H](Cn2cncn2)C[C@@H]2CN(Cc3cccs3)CC[C@@H]21	-0.112%
CN(C)C1CC2(CCN(C(=O)C3(C#N)CC3)CC2)c2ccccc21 (stereo not given)	-10.7%
CCN1C[C@H]2C3(CCN(C(=O)NC(C)C)CC3)CC[C@@]2(C(=O)NC)C1	-11.3%
CCN1C[C@H]2C3(CCN(C(C)=O)CC3)CC[C@@]2(C(=O)N(C)C)C1	-8.84%
O=C(c1ccncc1F)N1Cc2nc(COCC3CC3)oc2C1	-15.8%
CO[C@@H]1CC[C@H]2[C@H]1OCCN2CCOCc1ccccc1	-12.3%
CO[C@H]1CC[C@H]2[C@H]1OCCN2CCOCc1ccccc1	-11.7%
CC(C)N1[C@H](Cn2cncn2)C[C@@H]2CN(Cc3ccsc3)CC[C@@H]21	-2.74%
O=C(NC1CC1)N1CCC2(CC1)CC(N1CCOCC1)c1ccccc12 (stereo not given)	-10.8%
Cc1cccc(CN2CCC3(CCCN(CC(=O)N(C)C)C3)C2)n1 (stereo not given)	7.75%
Cc1ccc(N2CCC3(CC2)CC(OCC(C)C)C3)nn1	-8.68%
COCc1n[nH]c2c1CN(Cc1ccccn1)C2	-9.17%
Cc1cnc(N2CCC3(CC2)COCCN(C(C)C)C3)nc1	-8.08%
O=C(NCc1cnc2n1CCN(Cc1cccs1)C2)c1ccno1	18.9%
Cc1ccc(CN2CCC[C@]3(C(=O)O)CN(CC4CC4)C[C@@H]3C2)s1	-6.54%
CN1CCO[C@@H]2CN(C(=O)c3ccc4ncccc4c3)CC[C@@H]2C1	-8.09%
CCOCCN1CCO[C@H]2[C@H](OCc3ccccn3)CC[C@@H]21	-11%
COCCN1CCC2(CC1)CC(N1CCOCC1)c1ccc(C)cc12 (stereo not given)	-8.53%
O=C(Nc1cccnc1)[C@H]1CN(Cc2ccccn2)C[C@H]2OCC[C@@H]12	-7.69%
c1cncc(OCc2n[nH]c3c2CN(Cc2cccs2)C3)c1	-6.87%
